What was measured:
HEK293 = test: Human cell line activity, HEK293; format: cell-based; settings: HEK293, read-out: IC50 (µM) HEK293
[1] = molecular target: hPXR (human pregnane X receptor) (Homo sapiens, UniProt O75469); test: Enhanced Cross Screen Panel (eXP): hPXR; format: in vitro ADME
[2] = system: P. falciparum 3D7 parasites; test: Isopentenyl pyrophosphate (IPP) rescue assay; format: cell-based, Plasmodium falciparum; settings: drug at IC80 for one IEC before IPP (200 μM)
Text: Fig. 2. […] Nuclei are stained with 4’,6-diamidino-2-phenylindole (DAPI; blue). […] (B) Dose-dependent interactions between MED6-189 (blue) and various antimalarials with known mechanisms of action (red). […] The regression line represents a nonlinear regression (variable slope with four parameters), with significant differences considered if P < 0.05. […] Isobologram curves are expected to be parallel to the diagonal for additive drug pairs, concave for synergistic drug pairs, and convex for antagonistic drug pairs. […] The analysis was performed using a two-way ANOVA, n = 3, with P < 0.05 significance.
IPP is a product of the MEP/DOXP pathway, and its supplementation reduces susceptibility to MEP inhibitors. […] Parasites were drugged at 80% inhibitory concentrations (IC80) for one IEC before IPP (200 μM) supplementation.

[3] = system: P. falciparum NF54 (MRA-1000); test: SYBR Green I growth inhibition assay, NF54; format: cell-based, Plasmodium falciparum; settings: early-ring stage, 72 h exposure
Experimental: Fig. 1. […] (B) SYBR Green–based dose response assays were conducted on early-ring stage parasites (6 hours after invasion). […] 3D7 WT (blue), NF54 (green), drug-resistant strains Dd2 (red), HB3 (black), W2 (gray), and D10-ACP-GFP (purple) lines (Sigmoidal, 4PL, X is concentration, n ≥ 3, nonlinear regression, CI: 95%). (C) Schematic diagram of the development of P. falciparum after two consecutive erythrocytic cycles. The time points at which MED6-189 was introduced are depicted in green. HPS, hours post synchronization. […] The images depict various developmental stages of the parasite’s intraerythrocytic life cycle. Bordered images represent time points when drug was first introduced (n = 3 biological replicates, P < 0.05).
Detailed information on materials and methods is available in the supplementary materials. […] P. knowlesi assays were quantitatively measured by flow cytometry using SYBR Green I and Mitrotracker Deep Red, as previously described ([84], [85]), on a Beckman Coulter CytoFLEX. […]
(§1) P. falciparum in vitro SYBR green fluorescence-based assays The anti-malarial activity of individual analogues were evaluated in-vitro against P. falciparum 3D7 (MRA-102, drug […]
(§2) green-I based fluorescence assay. Parasite growth rate and stages of development were determined via microscopy through Giemsa-stained smears of the cultures. […]

[4] = system: 3D7 Clone-Kalihinol Treated (MED6-189 resistant line); test: SYBR Green dose response, MED6-189-selected resistant line; format: cell-based, Plasmodium falciparum; settings: resistant line after ~36 months of drug pressure
Text: To assess whether we could use the DMSO melting curves previously established for […] by Dziekan et al. ([49]), we calculated the difference in melting temperatures (ΔTm) between our DMSO dataset and Dziekan’s for 364 proteins for which Tm values were confidently calculated by mineCETSA (table S6).
Fig. 4. […] (C) Schematic representation of the CRISPR-Cas9–based replacement strategy used to introduce a deletion of the targeted repeat regions in the PfSec13 gene. The insertion was achieved through overlap extension polymerase chain reaction (PCR) of fragments directly upstream and downstream of the target segment and subsequently formed by primer overlap extension PCR to replicate the desired deletion. […] (D) Predicted structure of the SEC13 protein highlighting the seven amino acid tandem repeat regions targeted for deletion (red). […] Data were analyzed using a Sigmoidal, 4PL (X represents concentration, n = 3, nonlinear regression, CI: 95%).
as §1, §2

hPXR (human pregnane X receptor), sequence (O75469 whole entry): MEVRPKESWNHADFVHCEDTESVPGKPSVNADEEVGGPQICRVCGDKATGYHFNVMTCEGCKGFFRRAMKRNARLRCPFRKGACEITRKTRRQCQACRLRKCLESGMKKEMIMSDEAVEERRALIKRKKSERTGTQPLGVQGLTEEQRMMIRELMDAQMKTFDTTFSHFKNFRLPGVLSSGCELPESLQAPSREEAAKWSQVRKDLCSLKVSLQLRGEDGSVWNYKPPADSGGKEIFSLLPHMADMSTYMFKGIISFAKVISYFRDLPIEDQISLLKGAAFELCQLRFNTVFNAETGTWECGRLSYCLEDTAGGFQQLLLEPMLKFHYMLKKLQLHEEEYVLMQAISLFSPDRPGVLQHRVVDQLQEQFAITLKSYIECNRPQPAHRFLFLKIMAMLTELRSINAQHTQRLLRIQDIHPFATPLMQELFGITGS

Question: With `[C-]#[N+][C@]1(C)CC[C@H]2[C@@H]([C@@H](C(C)C)CC[C@]2(C)[N+]#[C-])[C@H]1O` [MED6-189] as the compound, how does the IC50 (HEK293) read?
Answer: 28 µM

Question: And the IC50 [1]?
Answer: 7400 nM

Question: What about the “rescue of parasites by IPP supplementation” value [2] of the same compound?
Answer: can only be rescued by IPP for one additional cycle

Question: And the IC50 ([3]; Plasmodium falciparum, NF54, 72 h)?
Answer: 28 ± 5 nM

Question: And the IC50 [3]?
Answer: 27 nM

Question: And the IC50 ([4]; 3D7 Clone-Kalihinol Treated)?
Answer: 58.1 nM

Question: And the IC50 ([4]; Plasmodium falciparum, 3D7, 3D7 Clone-Kalihinol Treated)?
Answer: ~60 nM

— article PMC11793105, “A kalihinol analog disrupts apicoplast function and vesicular trafficking in P. falciparum malaria” (Science (New York, N.Y.), 2024)
